System: not listed separately
Assay: Dissociation constant determined by heteronuclear 1H/15N correlation NMR spectroscopy
Type: physicochemical

| Structure (SMILES) | Kd |
| --- | --- |
| Nc1ncncn1 | 60 mM |
| Nc1ncccn1 | 60 mM |

System: Nucleic Acid
Assay: Maximal noneffective concentration (MNEC) for inhibition of DNA gyrase
Type: nucleic-acid assay

| Structure (SMILES) | MNEC |
| --- | --- |
| c1ccc2[nH]ncc2c1 | > 250 µg/mL |

Target: DNA gyrase (Staphylococcus aureus) (UniProt P0A0K8+P20831)
Description: Maximal noneffective concentration for inhibition of DNA gyrase using supercoiling assay.

| MNEC | Structure (SMILES) |
| --- | --- |
| 10 µg/mL | Cc1csc(NS(=O)(=O)c2ccc(F)cc2F)c1C(N)=O |
| 31 µg/mL | NC(=O)Oc1cc([N+](=O)[O-])ccc1CSCc1ccc(Cl)c(Cl)c1 |
| 0.25 µg/mL | Cc1cc(=O)oc2cc(SCc3n[nH]c4cccc(OCc5ccccc5)c34)ccc12 |
| 31 µg/mL | CSc1nc(N)nc(SCCN2CCOCC2)n1 |
| 0.05 µg/mL | Cc1c(O)cc(O)c2c1C(=O)OC[C@H](NC(=O)[C@@H]1[C@H](O)CCN1C(=O)[C@@H](N)CO)C(=O)N[C@H](C(=O)N[C@@H](C)C(=O)O)CSC2 |
| 16 µg/mL | OC(CCCCl)c1cc2ccccc2[nH]1 (stereo not given) |
| 0.03 µg/mL | Cc1cc(=O)oc2cc(SCc3n[nH]c4cccc(OCc5ccc(C(C)(C)C)cc5)c34)ccc12 |
| 63 µg/mL | O=[N+]([O-])c1ccc2[nH]nc(-c3ccccc3)c2c1 |
| 5 µg/mL | Oc1ccc(Cl)cc1CNc1ccc(Cl)cc1 |
| 31 µg/mL | Cc1[nH]c2ncnc(Cl)c2c1C |
| 8 µg/mL | c1ccc(-c2[nH]nc3ccccc23)cc1 |
| > 250 µg/mL | Nc1ccncn1 |
| 8 µg/mL | Cc1cc(=O)oc2cc(SCc3n[nH]c4ccccc34)ccc12 |

| Structure (SMILES) | MNEC |
| --- | --- |
| Nc1ccccn1 | > 250 µg/mL |
| Nc1ncncn1 | > 250 µg/mL |
| N#Cc1cnc(S)nc1N | 16 µg/mL |
| Nc1ncccn1 | > 250 µg/mL |

From ChEMBL document CHEMBL1133769, “Novel inhibitors of DNA gyrase: 3D structure based biased needle screening, hit validation by biophysical methods, and 3D guided optimization. A promising alternative to random screening” (J Med Chem, 2000)
